Usually pIC50 stands for the IC50 on a negative log10 scale, so that one unit is a factor of ten. Read a low pIC50 as a high IC50.

From BindingDB's records for doi:10.7270/Q2M0441T (Dalhousie University, 1989) come the findings set out here.

pIC50: −log10 of the molar value. Some results are limits rather than exact numbers.

In the assay the target is T1, Phosphatidylcholine-sterol acyltransferase (Homo sapiens, UniProt P04180).
T1 sequence (P04180 whole entry): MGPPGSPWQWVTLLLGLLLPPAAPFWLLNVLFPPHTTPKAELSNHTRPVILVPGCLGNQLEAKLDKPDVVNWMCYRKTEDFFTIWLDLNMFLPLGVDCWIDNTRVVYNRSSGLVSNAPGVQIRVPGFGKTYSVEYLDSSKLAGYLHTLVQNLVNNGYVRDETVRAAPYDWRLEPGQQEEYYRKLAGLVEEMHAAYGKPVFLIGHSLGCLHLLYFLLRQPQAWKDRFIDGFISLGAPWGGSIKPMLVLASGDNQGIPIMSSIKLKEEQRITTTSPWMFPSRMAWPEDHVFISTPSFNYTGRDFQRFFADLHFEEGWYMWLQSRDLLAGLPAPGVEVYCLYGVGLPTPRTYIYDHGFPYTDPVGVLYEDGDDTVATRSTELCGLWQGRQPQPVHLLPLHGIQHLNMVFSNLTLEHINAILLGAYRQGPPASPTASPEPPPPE
As to the kind of experiment: Enzyme Assay. Conditions: pH 7.5; 4 °C. On the procedure:
The phospholipase A2 activity of LCAT was assayed using lecithin and apoA-I containing [9,10-3H] dipalmitoylphosphatidylcholine (DPPC) and measurement of the radioactive fatty acid released from the sn-2-position.
Compound `CCCCCCCC(=O)C(F)(F)CCOP(=O)([O-])OCC[N+](C)(C)C` [Difluoroketone phospholipid analogue, 1] showed a pIC50 of less than 6.30.
With `CCCCCCCCOCC(COP(=O)([O-])OCC[N+](C)(C)C)C(F)(F)C(=O)CCCCCCC` (centres undefined) [Difluoroketone phospholipid analogue, 2] the figure was 7.22.
`CCCCCCCCCCCCCCCCC(=O)C(F)(F)C(COCCCCCCCC)COP(=O)([O-])OCC[N+](C)(C)C` (centres undefined) [Difluoroketone phospholipid analogue, 3]: the pIC50 is 7.55.
`CCCCCCCC(=O)OCC(COP(=O)([O-])OCC[N+](C)(C)C)CC(=O)C(F)(F)CCCCCC` (centres undefined) [Difluoroketone phospholipid analogue, 4]: the negative-log IC50 (pIC50) was 7.22.
